One test deals with T1, human M1 (Homo sapiens, UniProt P11229).
T1 construct: expressed in transfected cells; host or cells: CHO cells
T1 sequence (P11229 1-460): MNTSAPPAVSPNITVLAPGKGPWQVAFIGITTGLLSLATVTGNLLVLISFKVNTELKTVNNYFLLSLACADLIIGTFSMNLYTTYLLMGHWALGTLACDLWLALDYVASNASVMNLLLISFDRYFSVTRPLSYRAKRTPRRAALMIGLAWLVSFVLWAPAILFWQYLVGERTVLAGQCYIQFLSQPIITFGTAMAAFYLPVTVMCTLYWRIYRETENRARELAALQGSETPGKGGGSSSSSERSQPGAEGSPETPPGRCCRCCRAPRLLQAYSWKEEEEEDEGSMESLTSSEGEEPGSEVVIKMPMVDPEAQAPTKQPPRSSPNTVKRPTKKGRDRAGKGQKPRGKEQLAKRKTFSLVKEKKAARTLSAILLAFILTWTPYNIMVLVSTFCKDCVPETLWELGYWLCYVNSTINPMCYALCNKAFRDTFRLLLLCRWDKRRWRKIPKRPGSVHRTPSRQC
As to the kind of experiment: M1 PAM assay (FLIPR intracellular calcium, CHO human M1). The format is cell-based. As for the experimental part: The assay study the effect of several concentrations of test compounds on basal or acetylcholine-stimulated Ca^2+ levels using FLIPR. CHO human M1 are plated the day before the experiments at 2×10^5 cells/ml in PDL BioCoat 96 well black/clear plate (Becton 35 4640). The cells are grown at 37° C. and 5% CO2 in the following medium: F12 Nut Mix (Gibco 21765), 10% FCS heat inactivated (GIBCO 16000-044), 1% Pen Strep (Gibco, 15140) and 200 μg/ml Geneticin (Gibco 11811). On the day of the experiment, the medium was removed and replaced by 100 μl of dye loading buffer containing Hanks Balanced Salt solution (HBSS, 14065-049, Gibco) with 20 mM HEPES (Gibco 15630-056), 2 mM Probenicid (Sigma P8761), […] (Molecular Probes F-14202), 10% Pluronic acid Molecular Probes P-3000) pH=7.4 and incubated at 37° C. After 60 minutes extracellular dye was removed and the cells were washed five times with FLIPR buffer containing HBSS (Gibco 14065-049) with 20 mM HEPES (Gibco, 15630-056), 2 mM Probenicid (Sigma P8761) pre-warmed at 37° C. using and Ebml cell washer leaving 100 μl of FLIPR buffer in each well. The cell plate and the diluted compounds (1% DMSO final concentration) are placed on the platform of the FLIPR and the door closed. A signal test to check background fluorescence and basal fluorescence signal is performed. Laser intensity is adjusted if necessary. Two minutes preincubation with the diluted test compounds is provide to determine any agonist activity on the M1 receptor by comparison to 30 nM Acetylcholine control. In order to determine any modulator activity the diluted compounds were added to cells and after two minutes preincubation, the EC20 of acetylcholine is added followed by another two minutes preincubation before the measurement of intracellular Ca^2+ with a FLIPR (Molecular Devices).
A general note: Calcium flux is commonly read through the fluorescence of an indicator in the cells.

Another test concerns the target T2, M1 receptor (Rattus norvegicus, UniProt P08482).
T2 construct: expressed in transfected cells
T2 sequence (P08482 1-460): T1 sequence (P11229 1-460) with A5V, T254S, P309S, R320K, A337G, I413V
The test is described as follows: M1 PAM assay (FLIPR intracellular calcium), rat. It is filed as cell-based.

Setting [1] is: human M1 in CHO cells, modulator activity with EC20 of acetylcholine, FLIPR Ca2+, read-out: EC50 h PAM.
The mark [2] stands for this setting: rat, modulator activity with EC20 of acetylcholine, FLIPR Ca2+, read-out: EC50 rat PAM.

Substitutions are numbered along the chain they refer to. Like-named read-outs stand apart in the source and are kept apart here.

As usually defined, the EC50 is the concentration that produces a half-maximal response. Regarding `Cn1cc(-c2ccc(Cn3cc(C(=O)N[C@H]4CCCC[C@@H]4F)c4ncccc43)c(F)c2)cn1` (racemic) [Example 58, 1-(2-fluoro-4-(1-methyl-1H-pyrazol-4-yl)benzyl)-N-((1SR,2SR)-2-fluorocyclohexyl)-1H-pyrrolo[3,2-b]pyridine-3-carboxamide], the EC50 at human M1 (setting [1]) turned out to be 239 nM; at M1 receptor (setting [2]) it was 453 nM.

On to `Cn1cc(-c2ccc(Cn3cc(C(=O)N[C@H]4CCOC[C@@H]4O)c4ncccc43)c(F)c2)cn1` (single isomer, unassigned) [Example 59, 1-[[2-fluoro-4-(1-methylpyrazol-4-yl)phenyl]methyl]-N-[(3R,4S) or (3S,4R)-3-hydroxyoxan-4-yl]pyrrolo[3,2-b]pyridine-3-carboxamide], for which the concentration for a half-maximal effect (EC50) at human M1 is 15.5 nM; at M1 receptor, 18 nM.

For `NC(=O)c1ccc(Cn2cc(C(=O)N[C@@H]3CCOC[C@H]3O)c3ncccc32)cc1` (stereo in doubt) [Example 63a, 1-(4-Carbamoylbenzyl)-N-((3S,4R)-3-hydroxytetrahydro-2H-pyran-4-yl)-1H-pyrrolo[3,2-b]pyridine-3-carboxamide], the EC50 came out at 289 nM at human M1 and 661 nM at M1 receptor.

In the case of `NC(=O)c1ccc(Cn2cc(C(=O)N[C@H]3CCOC[C@@H]3O)c3ncccc32)cc1` (stereo in doubt) [Example 63b, 1-(4-carbamoylbenzyl)-N-((3R,4S)-3-hydroxytetrahydro-2H-pyran-4-yl)-1H-pyrrolo[3,2-b]pyridine-3-carboxamide], the figures for the EC50 on human M1 and on M1 receptor were 13 nM and 47 nM, respectively.

On to `O=C(N[C@H]1CCCC[C@@H]1O)c1cn(Cc2cc(Br)ccc2F)c2cccnc12` [Example 1, 1-(5-bromo-2-fluorobenzyl)-N-((1S,2S)-2-hydroxycyclohexyl)-1H-pyrrolo[3,2b]pyridine-3-carboxamide], for which the EC50 on human M1 was determined as 545 nM; on M1 receptor, 1950 nM.

For `Cn1cc(-c2ccc(Cn3cc(C(=O)N[C@H]4CCCC[C@@H]4O)c4ncccc43)c(F)c2)cn1` [Example 2, 1-(2-fluoro-4-(1-methyl-1H-pyrazol-4-yl)benzyl)-N-((1S,2S)-2-hydroxycyclohexyl)-1H-pyrrolo[3,2-b]pyridine-3-carboxamide], the EC50 at human M1 (setting [1]) was 9.86 nM; at M1 receptor (setting [2]), 34.7 nM.

With `Cn1cc(-c2ccc(Cn3cc(C(=O)N[C@@H]4CCCC[C@H]4O)c4ncccc43)c(F)c2)cn1` [Example 3, 1-(2-fluoro-4-(1-methyl-1H-pyrazol-4-yl)benzyl)-N-((1R,2R)-2-hydroxycyclohexyl)-1H-pyrrolo[3,2-b]pyridine-3-carboxamide], the results for the concentration for a half-maximal effect (EC50) on human M1 and on M1 receptor were 101 nM and 131 nM, respectively.

With `O=C(N[C@H]1CCCC[C@@H]1O)c1cn(Cc2ccc(Cl)nc2)c2cccnc12` [Example 5, 1-((6-chloropyridin-3-yl)methyl)-N-((1S,2S)-2-hydroxycyclohexyl)-1H-pyrrolo[3,2-b]pyridine-3-carboxamide], the EC50 on human M1 was 489 nM; at M1 receptor, 2320 nM.

Consider `Cn1cc(-c2ccc(Cn3nc(C(=O)N[C@H]4CCCC[C@@H]4O)c4ncccc43)c(F)c2)cn1` [Example 6, 1-(2-fluoro-4-(1-methyl-1H-pyrazol-4-yl)benzyl)-N-((1S,2S)-2-hydroxycyclohexyl)-1H-pyrazolo[4,3-b]pyridine-3-carboxamide], for which the results for the EC50 on human M1 (setting [1]) and at M1 receptor (setting [2]) were 25.3 nM and 71.5 nM, respectively.

For the molecule `C[C@@H](CO)NC(=O)c1cn(Cc2ccc(-c3cnn(C)c3)cc2F)c2cccnc12` [Example 8, 1-[2-Fluoro-4-(1-methyl-1H-pyrazol-4-yl)-benzyl]-1H-pyrrolo[3,2-b]pyridine-3-carboxylic acid ((S)-2-hydroxy-1-methyl-ethyl)-amide], the EC50 on human M1 is 248 nM; at M1 receptor, 695 nM.

In the case of `Cn1cc(-c2ccc(Cn3cc(C(=O)NCC(C)(C)O)c4ncccc43)c(F)c2)cn1` [Example 11, 1-[2-Fluoro-4-(1-methyl-1H-pyrazol-4-yl)-benzyl]-1H-pyrrolo[3,2-b]pyridine-3-carboxylic acid (2-hydroxy-2-methyl-propyl)-amide], the EC50 is 317 nM at human M1 and 616 nM on M1 receptor.

The values above are taken from patent US9932335B2 (priority 2013, dated 2018).
